Results reported in patent US10294202B2, “Pyrrolidinones as herbicides” (FMC Corporation, priority 2013, dated 2019).

Columns and labels:
wheat = test: Test A pre-/postemergence herbicide test; type: in vivo, Triticum aestivum; details: Postemergence
Summary of the method: (§1)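 Greenhouse pot test with pre- and postemergence application of surfactant-containing solvent formulations. Postemergence plants were 2–10 cm, one- to two-leaf stage. Response scored visually after ~10 days, 0 (no effect) to 100 (complete control).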

barnyardgrass [1] = test: Test B flooded paddy test; type: in vivo, Echinochloa crus-galli; details: 500 g ai/ha, Flood; scale of 0 to 100 where 0 is no effect and 100 is complete control
Summary of the method: (§2)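 Scoring: visual, compared with untreated controls, 0 = no effect through 100 = complete control, taken 13 to 15 days after treatment in the greenhouse. Compounds had been added to paddy water over soil flooded 3 cm deep at the plants' 2-leaf stage.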

rice = test: Test B flooded paddy test; type: in vivo, Oryza sativa; details: 500 g ai/ha, Flood; scale of 0 to 100 where 0 is no effect and 100 is complete control
Summary of the method: as §2

ragweed = test: Test A pre-/postemergence herbicide test; type: in vivo, Ambrosia elatior
Summary of the method: as §1

kochia = test: Test A pre-/postemergence herbicide test; type: in vivo, Kochia scoparia
Summary of the method: as §1

giant foxtail = test: Test A pre-/postemergence herbicide test; type: in vivo, Setaria faberii
Summary of the method: as §1

ryegrass, Italian = test: Test A pre-/postemergence herbicide test; type: in vivo, Lolium multiflorum
Summary of the method: as §1

blackgrass = test: Test A postemergence herbicide test; type: in vivo, Alopecurus myosuroides
Summary of the method: (§3)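 Young potted plants in a loam–sand mix, one- to two-leaf stage and 2–10 cm tall, receive the test chemical postemergence and stay in a greenhouse for approximately 10 days. Injury is then judged by eye against untreated plants, scored 0 (none) to 100 (complete control).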

ducksalad = test: Test B flooded paddy test; type: in vivo, Heteranthera limosa; details: 500 g ai/ha, Flood; scale of 0 to 100 where 0 is no effect and 100 is complete control
Summary of the method: as §2

galium = test: Test A postemergence herbicide test; type: in vivo, Galium aparine
Summary of the method: as §3

sedge, umbrella = test: Test B flooded paddy test; type: in vivo, Cyperus difformis; details: 500 g ai/ha, Flood; scale of 0 to 100 where 0 is no effect and 100 is complete control
Summary of the method: as §2

corn = test: Test A pre-/postemergence herbicide test; type: in vivo, Zea mays; details: Postemergence
Summary of the method: as §1

barnyardgrass [2] = test: Test A pre-/postemergence herbicide test; type: in vivo, Echinochloa crus-galli
Summary of the method: as §1

pigweed = test: Test A pre-/postemergence herbicide test; type: in vivo, Amaranthus retroflexus
Summary of the method: as §1

[3] = 125 g ai/ha, visual rating on 0 to 100 scale (0 no effect, 100 complete control), approx. 10 days
[4] = 500 g ai/ha, 0 to 100 scale (0 no effect, 100 complete control)
[5] = Postemergence, 125 g ai/ha, visual rating on 0 to 100 scale (0 no effect, 100 complete control), approx. 10 days
[6] = Postemergence, 500 g ai/ha, 0 to 100 scale (0 no effect, 100 complete control)
[7] = Preemergence, 125 g ai/ha, 0 to 100 scale where 0 is no effect and 100 is complete control
[8] = Preemergence, 500 g ai/ha, visual rating on 0 to 100 scale (0 no effect, 100 complete control)

Structure (SMILES) | Plant response rating, Wheat (wheat; [3]) | Plant response rating, Wheat (wheat; [4]) | Plant response rating, Barnyardgrass (barnyardgrass [1]) | Plant response rating, Rice (rice) | Plant response rating, Ragweed (ragweed; [5]) | Plant response rating, Ragweed (ragweed; [6]) | Plant response rating, Ragweed (ragweed; [7]) | Ragweed plant response rating (ragweed; [8]) | Plant response rating, Kochia (kochia; [5]) | Plant response rating, Kochia (kochia; [6]) | Plant response rating, Kochia (kochia; [7]) | Kochia plant response rating (kochia; [8]) | Plant response rating, Foxtail, Giant (giant foxtail; [5]) | Plant response rating, Foxtail, Giant (giant foxtail; [6]) | Plant response rating, Foxtail, Giant (giant foxtail; [7]) | Foxtail, Giant plant response rating (giant foxtail; [8]) | Plant response rating, Ryegrass, Italian (ryegrass, Italian; [5]) | Plant response rating, Ryegrass, Italian (ryegrass, Italian; [6]) | Plant response rating, Ryegrass, Italian (ryegrass, Italian; [7]) | Ryegrass, Italian plant response rating (ryegrass, Italian; [8]) | also measured
O=C1NCC(c2cccc(Br)c2)C1C(=O)Nc1ccc(F)cc1F (stereo not drawn) [Compound 308] | 0 | 20 | 70 | 0 | 0 | 0 | 0 | 0 | 0 | 0 | 0 | 0 | 70 | 80 | 80 | 90 | 0 | 0 | 0 | 0 | Plant response rating, Blackgrass (blackgrass; [3]): 50; Plant response rating, Blackgrass (blackgrass; [4]): 70; Plant response rating, Ducksalad (ducksalad): 90; Plant response rating, Galium (galium; [3]): 0; Plant response rating, Galium (galium; [4]): 0; Plant response rating, Sedge, Umbrella (sedge, umbrella): 0; Plant response rating, Corn (corn; [3]): 0; Plant response rating, Corn (corn; [4]): 10; Plant response rating, Barnyardgrass (barnyardgrass [2]; [5]): 70; Plant response rating, Barnyardgrass (barnyardgrass [2]; [6]): 70; Plant response rating, Barnyardgrass (barnyardgrass [2]; [7]): 70; Barnyardgrass plant response rating (barnyardgrass [2]; [8]): 80; Plant response rating, Pigweed (pigweed; [5]): 0; Plant response rating, Pigweed (pigweed; [6]): 0; Plant response rating, Pigweed (pigweed; [7]): 0; Pigweed plant response rating (pigweed; [8]): 0
O=C1NCC(c2cccc(C(F)(F)F)c2)C1C(=O)Nc1cccc(C(F)(F)F)c1 (stereo not drawn) [Compound 313] | 0 | 0 | 60 | 0 | 0 | 0 | 0 | 0 | 0 | 0 | 0 | 0 | 40 | 70 | 30 | 80 | 0 | 0 | 0 | 0 | Plant response rating, Blackgrass (blackgrass; [3]): 0; Plant response rating, Blackgrass (blackgrass; [4]): 0; Plant response rating, Ducksalad (ducksalad): 0; Plant response rating, Galium (galium; [3]): 0; Plant response rating, Galium (galium; [4]): 0; Plant response rating, Sedge, Umbrella (sedge, umbrella): 0; Plant response rating, Corn (corn; [3]): 0; Plant response rating, Corn (corn; [4]): 0; Plant response rating, Barnyardgrass (barnyardgrass [2]; [5]): 20; Plant response rating, Barnyardgrass (barnyardgrass [2]; [6]): 80; Plant response rating, Barnyardgrass (barnyardgrass [2]; [7]): 50; Barnyardgrass plant response rating (barnyardgrass [2]; [8]): 80; Plant response rating, Pigweed (pigweed; [5]): 0; Plant response rating, Pigweed (pigweed; [6]): 0; Plant response rating, Pigweed (pigweed; [7]): 0; Pigweed plant response rating (pigweed; [8]): 0
O=C1NCC(c2cccc(I)c2)C1C(=O)Nc1ccccc1C(F)(F)F (stereo not drawn) [Compound 328] | 0 | 0 | 0 | 0 | 0 | 0 | 0 | 0 | 0 | 20 | 0 | 20 | 70 | 80 | 80 | 90 | 0 | 20 | 0 | 40 | Plant response rating, Blackgrass (blackgrass; [3]): 30; Plant response rating, Blackgrass (blackgrass; [4]): 40; Plant response rating, Ducksalad (ducksalad): 35; Plant response rating, Galium (galium; [3]): 20; Plant response rating, Galium (galium; [4]): 50; Plant response rating, Sedge, Umbrella (sedge, umbrella): 0; Plant response rating, Corn (corn; [3]): 0; Plant response rating, Corn (corn; [4]): 0; Plant response rating, Barnyardgrass (barnyardgrass [2]; [5]): 30; Plant response rating, Barnyardgrass (barnyardgrass [2]; [6]): 80; Plant response rating, Barnyardgrass (barnyardgrass [2]; [7]): 40; Barnyardgrass plant response rating (barnyardgrass [2]; [8]): 80; Plant response rating, Pigweed (pigweed; [5]): 0; Plant response rating, Pigweed (pigweed; [6]): 0; Plant response rating, Pigweed (pigweed; [7]): 0; Pigweed plant response rating (pigweed; [8]): 0
O=C1NCC(c2cccc(-n3ccc(C(F)(F)F)n3)c2)C1C(=O)Nc1ccccc1C(F)(F)F (stereo not drawn) [Compound 329] | 0 | 0 | 0 | 0 | 0 | 0 | 0 | 0 | 0 | 0 | 0 | 0 | 0 | 30 | 0 | 60 | 0 | 0 | 0 | 0 | Plant response rating, Blackgrass (blackgrass; [3]): 0; Plant response rating, Blackgrass (blackgrass; [4]): 0; Plant response rating, Ducksalad (ducksalad): 0; Plant response rating, Galium (galium; [3]): 0; Plant response rating, Galium (galium; [4]): 0; Plant response rating, Sedge, Umbrella (sedge, umbrella): 0; Plant response rating, Corn (corn; [3]): 0; Plant response rating, Corn (corn; [4]): 0; Plant response rating, Barnyardgrass (barnyardgrass [2]; [5]): 0; Plant response rating, Barnyardgrass (barnyardgrass [2]; [6]): 0; Plant response rating, Barnyardgrass (barnyardgrass [2]; [7]): 0; Barnyardgrass plant response rating (barnyardgrass [2]; [8]): 0; Plant response rating, Pigweed (pigweed; [5]): 0; Plant response rating, Pigweed (pigweed; [6]): 0; Plant response rating, Pigweed (pigweed; [7]): 0; Pigweed plant response rating (pigweed; [8]): 0
O=C1NCC(c2cccc(Oc3ccccc3)c2)C1C(=O)Nc1ccccc1F (stereo not drawn) [Compound 330] | 0 | 0 | 0 | 0 | 0 | 0 | 0 | 0 | 0 | 0 | 20 | 20 | 80 | 80 | 50 | 80 | 0 | 0 | 30 | 40 | Plant response rating, Blackgrass (blackgrass; [3]): 0; Plant response rating, Blackgrass (blackgrass; [4]): 0; Plant response rating, Ducksalad (ducksalad): 100; Plant response rating, Galium (galium; [3]): 20; Plant response rating, Galium (galium; [4]): 30; Plant response rating, Sedge, Umbrella (sedge, umbrella): 0; Plant response rating, Corn (corn; [3]): 0; Plant response rating, Corn (corn; [4]): 0; Plant response rating, Barnyardgrass (barnyardgrass [2]; [5]): 60; Plant response rating, Barnyardgrass (barnyardgrass [2]; [6]): 60; Plant response rating, Barnyardgrass (barnyardgrass [2]; [7]): 60; Barnyardgrass plant response rating (barnyardgrass [2]; [8]): 70; Plant response rating, Pigweed (pigweed; [5]): 0; Plant response rating, Pigweed (pigweed; [6]): 0; Plant response rating, Pigweed (pigweed; [7]): 0; Pigweed plant response rating (pigweed; [8]): 20
